We go through 17 molecules from patent US20250018046A1, “COMPOUNDS FOR TARGETING DEGRADATION OF IRAK4 PROTEINS” (BIOGEN MA INC, priority 2021, published 2025).

The test has as its target T1, IRAK4 (Homo sapiens, UniProt Q9NWZ3).
T1 construct: knocking-in a HiBiT fusion tag into the C-terminal of the IRAK4 gene in 293T cells; host or cells: 293T cells, knock-in of HiBiT at the endogenous IRAK4 locus
T1 sequence (Q9NWZ3 1-460): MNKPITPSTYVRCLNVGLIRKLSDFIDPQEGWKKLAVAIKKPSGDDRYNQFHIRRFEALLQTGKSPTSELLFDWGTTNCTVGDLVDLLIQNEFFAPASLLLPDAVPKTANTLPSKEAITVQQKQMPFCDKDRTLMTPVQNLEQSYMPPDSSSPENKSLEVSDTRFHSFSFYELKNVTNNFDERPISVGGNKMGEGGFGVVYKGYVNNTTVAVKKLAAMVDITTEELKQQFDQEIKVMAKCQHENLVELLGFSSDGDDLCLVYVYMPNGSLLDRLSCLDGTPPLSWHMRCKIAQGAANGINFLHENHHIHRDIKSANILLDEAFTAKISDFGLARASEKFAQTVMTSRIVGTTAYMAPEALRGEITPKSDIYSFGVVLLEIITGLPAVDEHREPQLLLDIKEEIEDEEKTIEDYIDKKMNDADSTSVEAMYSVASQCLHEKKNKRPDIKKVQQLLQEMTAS
Briefly: IRAK4 degradation assay using the HiBiT Method. To be noted: 293T cells expressing HiBiT-tagged IRAK4; 6-hour incubation; Nano-Glo HiBiT Lytic Assay luminescence. Format: cell-based. How it is done: Selected compounds were tested in an IRAK4 degradation assay using the HiBiT Method.
Phenol red-free Dulbecco's modified Eagle medium (DMEM) and fetal bovine serum (FBS) were purchased from Gibco (Grand Island, NY, USA). The Nano-Glo© HiBiT Lytic Assay System was purchased from Promega (Madison, WI, USA). Cell culture flasks and 384-well microplates were acquired from VWR (Radnor, PA, USA). The 293T cell line was engineered by knocking-in a HiBiT fusion tag into the C-terminal of the IRAK4 gene in 293T cells (Synthego, Redwood City, CA, USA).
IRAK4 degradation was measured via the quantification of luminescent signals using the Nano-Glo© HiBiT Lytic Assay kit. Test compounds were added to 384-well plates in duplicate using an 11-point half-log dilution series, with the highest dose set at 10 mM. 293T cells expressing HiBiT-tagged IRAK4 were then added into 384-well plates at a cell density of 10,000 cells per well. The plates were kept at 37° C. with 5% CO2 for 6 hours. Cells that were treated only with DMSO served as the negative control; wells that contained only assay media served as the background control. After the 6-hour incubation, Nano-Glo® HiBiT Lytic Assay reagents were added to the cells. Luminescence was acquired using an EnVision® Multilabel Reader (PerkinElmer, Santa Clara, CA, USA).

As a reminder, the DC50 is the concentration giving 50% degradation. The low end stands for a more potent degrader, the high end for a less potent degrader. Molecule `CC(C)Oc1cc2nc(C3CCN(CCC(=O)N4CCN(c5ccc(OC6CCC(=O)NC6=O)cc5)CC4)CC3)cn2cc1NC(=O)c1cccc(C(F)(F)F)n1` (centres unmarked) [Example 33, N-[2-[1-[3-[4-[4-[(2,6-dioxo-3-piperidyl)oxy]phenyl]piperazin-1-yl]-3-oxo-propyl]-4-piperidyl]-7-isopropoxy-imidazo[1,2-a]pyridin-6-yl]-6-(trifluoromethyl)pyridine-2-carboxamide] registered a DC50 of 100 to 500 nM.
The figure for `CC(C)Oc1cc2nc(C3CN(CCC(=O)N4CCC(c5ccc(NC6CCC(=O)NC6=O)cc5)CC4)C3)cn2cc1NC(=O)c1cccc(C(F)(F)F)n1` (centres unmarked) [Example 34, N-[2-[1-[3-[4-[4-[(2,6-dioxo-3-piperidyl)amino]phenyl]-1-piperidyl]-3-oxo-propyl]azetidin-3-yl]-7-isopropoxy-imidazo[1,2-a]pyridin-6-yl]-6-(trifluoromethyl)pyridine-2-carboxamide] is 100 to 500 nM; for `CC(C)Oc1cc2nc(C3CCC(CN4CCC(c5ccc(C6CCC(=O)NC6=O)cc5)CC4)CC3)cn2cc1NC(=O)c1cccc(C(F)(F)F)n1` (centres unmarked) [Example 35, N-[2-[4-[[4-[4-(2,6-dioxo-3-piperidyl)phenyl]-1-piperidyl]methyl]cyclohexyl]-7-isopropoxy-imidazo[1,2-a]pyridin-6-yl]-6-(trifluoromethyl)pyridine-2-carboxamide] it is 100 to 500 nM.
`CC(C)Oc1cc2nc([C@H]3CC[C@H](CN(C)C4CCN(c5ccc(NC6CCC(=O)NC6=O)cc5)CC4)CC3)cn2cc1NC(=O)c1cccc(C(F)(F)F)n1` (some centres unmarked) [Example 36, N-[2-[4-[[[1-[4-[(2,6-dioxo-3-piperidyl)amino]phenyl]-4-piperidyl]-methyl-amino]methyl]cyclohexyl]-7-isopropoxy-imidazo[1,2-a]pyridin-6-yl]-6-(trifluoromethyl)pyridine-2-carboxamide]: the DC50 lay within 10 to 100 nM.
Molecule `CC(C)Oc1cc2nc([C@H]3CC[C@H](CN4CCC(c5cccc6c5n(C)c(=O)n6C5CCC(=O)NC5=O)CC4)CC3)cn2cc1NC(=O)c1cccc(C(F)(F)F)n1` (some centres unmarked) [Example 37, N-[2-[4-[[4-[1-(2,6-dioxo-3-piperidyl)-3-methyl-2-oxo-benzimidazol-4-yl]-1-piperidyl]methyl]cyclohexyl]-7-isopropoxy-imidazo[1,2-a]pyridin-6-yl]-6-(trifluoromethyl)pyridine-2-carboxamide] displayed a DC50 of 10 to 100 nM.
Molecule `CC(C)Oc1cc2nc([C@H]3CC[C@H](CN4CCC(c5cccc(NC6CCC(=O)NC6=O)c5F)CC4)CC3)cn2cc1NC(=O)c1cccc(C(F)(F)F)n1` (some centres unmarked) [Example 38, N-[2-[4-[[4-[3-[(2,6-dioxo-3-piperidyl)amino]-2-fluoro-phenyl]-1-piperidyl]methyl]cyclohexyl]-7-isopropoxy-imidazo[1,2-a]pyridin-6-yl]-6-(trifluoromethyl)pyridine-2-carboxamide] returned a DC50 of 100 to 500 nM.
The value for `CC(C)Oc1cc2nc([C@H]3CC[C@H](CN4CCC(c5cccc(NC6CCC(=O)NC6=O)c5)CC4)CC3)cn2cc1NC(=O)c1cccc(C(F)(F)F)n1` (some centres unmarked) [Example 39, N-[2-[4-[[4-[3-[(2,6-dioxo-3-piperidyl)amino]phenyl]-1-piperidyl]methyl]cyclohexyl]-7-isopropoxy-imidazo[1,2-a]pyridin-6-yl]-6-(trifluoromethyl)pyridine-2-carboxamide] was 100 to 500 nM; that for `CC(C)Oc1cc2nc([C@H]3CC[C@H](CN(C)C4CCN(c5ccc(C6CCC(=O)NC6=O)cc5)CC4)CC3)cn2cc1NC(=O)c1cccc(C(F)(F)F)n1` (some centres unmarked) [Example 40, N-[2-[4-[[[1-[4-(2,6-dioxo-3-piperidyl)phenyl]-4-piperidyl]-methyl-amino]methyl]cyclohexyl]-7-isopropoxy-imidazo[1,2-a]pyridin-6-yl]-6-(trifluoromethyl)pyridine-2-carboxamide] was 100 to 500 nM; that for `CC(C)Oc1cc2nc([C@H]3CC[C@H](CN4CCC(c5ccc(C6CCC(=O)NC6=O)cc5F)CC4)CC3)cn2cc1NC(=O)c1cccc(C(F)(F)F)n1` (some centres unmarked) [Example 41, N-[2-[4-[[4-[4-(2,6-dioxo-3-piperidyl)-2-fluoro-phenyl]-1-piperidyl]methyl]cyclohexyl]-7-isopropoxy-imidazo[1,2-a]pyridin-6-yl]-6-(trifluoromethyl)pyridine-2-carboxamide] was 100 to 500 nM.
The value for `CC(C)Oc1cc2nc([C@H]3CC[C@H](CN(C)C4CCN(c5cccc6c5n(C)c(=O)n6C5CCC(=O)NC5=O)CC4)CC3)cn2cc1NC(=O)c1cccc(C(F)(F)F)n1` (some centres unmarked) [Example 42, N-[2-[4-[[[1-[1-(2,6-dioxo-3-piperidyl)-3-methyl-2-oxo-benzimidazol-4-yl]-4-piperidyl]-methyl-amino]methyl]cyclohexyl]-7-isopropoxy-imidazo[1,2-a]pyridin-6-yl]-6-(trifluoromethyl)pyridine-2-carboxamide] was 100 to 500 nM.
The figure for `CC(C)Oc1cc2nc([C@H]3CC[C@H](CN(C)C4CCN(c5cccc(C6CCC(=O)NC6=O)c5)CC4)CC3)cn2cc1NC(=O)c1cccc(C(F)(F)F)n1` (some centres unmarked) [Example 43, N-[2-[4-[[[1-[3-(2,6-dioxo-3-piperidyl)phenyl]-4-piperidyl]-methyl-amino]methyl]cyclohexyl]-7-isopropoxy-imidazo[1,2-a]pyridin-6-yl]-6-(trifluoromethyl)pyridine-2-carboxamide] is 100 to 500 nM.
`CC(C)Oc1cc2nc([C@H]3CC[C@H](CN(C)C4CCN(c5cccc(NC6CCC(=O)NC6=O)c5)CC4)CC3)cn2cc1NC(=O)c1cccc(C(F)(F)F)n1` (some centres unmarked) [Example 44, N-[2-[4-[[[1-[3-[(2,6-dioxo-3-piperidyl)amino]phenyl]-4-piperidyl]-methyl-amino]methyl]cyclohexyl]-7-isopropoxy-imidazo[1,2-a]pyridin-6-yl]-6-(trifluoromethyl) pyridine-2-carboxamide]: the DC50 was in the range of 100 to 500 nM.
The figure for `CC(C)Oc1cc2nc([C@H]3CC[C@H](CN(C)C4CCN(c5ccc6c(c5)n(C)c(=O)n6C5CCC(=O)NC5=O)CC4)CC3)cn2cc1NC(=O)c1cccc(C(F)(F)F)n1` (some centres unmarked) [Example 45, N-[2-[4-[[[1-[1-(2,6-dioxo-3-piperidyl)-3-methyl-2-oxo-benzimidazol-5-yl]-4-piperidyl]-methyl-amino]methyl]cyclohexyl]-7-isopropoxy-imidazo[1,2-a]pyridin-6-yl]-6-(trifluoromethyl)pyridine-2-carboxamide] is 500 to 1000 nM; for `CC(C)Oc1cc2nc([C@H]3CC[C@H](CN(C)C4CCN(Cc5cccc(NC6CCC(=O)NC6=O)c5)CC4)CC3)cn2cc1NC(=O)c1cccc(C(F)(F)F)n1` (some centres unmarked) [Example 46, N-[2-[4-[[[1-[[3-[(2,6-dioxo-3-piperidyl)amino]phenyl]methyl]-4-piperidyl]-methyl-amino]methyl]cyclohexyl]-7-isopropoxy-imidazo[1,2-a]pyridin-6-yl]-6-(trifluoromethyl) pyridine-2-carboxamide] it is over 1000 nM.
The value for `CC(C)Oc1cc2nc(C3CCC(CN4CCC(c5ccc6c(c5)n(C)c(=O)n6C5CCC(=O)NC5=O)CC4)CC3)cn2cc1NC(=O)c1cccc(C(F)(F)F)n1` (centres unmarked) [Example 47, N-[2-[4-[[4-[1-(2,6-dioxo-3-piperidyl)-3-methyl-2-oxo-benzimidazol-5-yl]-1-piperidyl]methyl]cyclohexyl]-7-isopropoxy-imidazo[1,2-a]pyridin-6-yl]-6-(trifluoromethyl)pyridine-2-carboxamide] was 100 to 500 nM.
The figure for `CC(C)Oc1cc2nn(C3CCN(CC(=O)N4CCC(c5ccc(NC6CCC(=O)NC6=O)cc5)CC4)CC3)cc2cc1NC(=O)c1cccc(C(F)(F)F)n1` (centres unmarked) [Example 49, N-(2-(1-(2-(4-(4-((2,6-dioxopiperidin-3-yl)amino)phenyl)piperidin-1-yl)-2-oxoethyl)piperidin-4-yl)-6-isopropoxy-2H-indazol-5-yl)-6-(trifluoromethyl) picolinamide] is 10 to 100 nM.
Regarding `CC(C)Oc1cc2nn(C3CCN(CC(=O)N4CCC(c5ccc(NC6CCC(=O)NC6=O)cc5F)CC4)CC3)cc2cc1NC(=O)c1cccc(C(F)(F)F)n1` (centres unmarked) [Example 50, N-[2-[1-[2-[4-[4-[(2,6-dioxo-3-piperidyl)amino]-2-fluoro-phenyl]-1-piperidyl]-2-oxo-ethyl]-4-piperidyl]-6-isopropoxy-indazol-5-yl]-6-(trifluoromethyl)pyridine-2-carboxamide], the DC50 was in the range of 10 to 100 nM.
